A short description of this data set: Human HepG2 cell viability assay in 384 well format. Also noted: dose 125 nL, time 70.5 hour; concentration not given beside the values. Type of data set: toxicity, cell-based. As to conditions: HepG2 cells, read-out: Inhibition.

For the molecule `COc1ccc(-c2csc(N)c2C#N)cc1OC`, the cytotoxicity at 70.5 h is -13%.

In the case of `Cn1c(C(F)(F)F)nn(CCNC(=O)c2cnc3ccccc3n2)c1=O`, the cytotoxicity at 70.5 h was -2.86%.

Turning to `COC(=O)c1sccc1S(=O)(=O)N1CCC(Oc2ncccc2Cl)CC1`, the cytotoxicity at 70.5 h worked out at 2.59%.

On to `N#Cc1ccc(OC2CCN(C(=O)c3ccc4c(c3)OCO4)CC2)nc1`, for which the cytotoxicity at 70.5 h was found to be 17.3%.

Regarding `CN(C)S(=O)(=O)N1CCC(Oc2cnccn2)CC1`, the cytotoxicity at 70.5 h was -0.386%.

As to `O=C(c1ccc2c(c1)OCO2)N1CCCSCC1CN1CCCC1` (configuration not stated), the cytotoxicity at 70.5 h is 0.782%.

For `COCCN(Cc1ccoc1)C(=O)c1ccccc1Cl`, the cytotoxicity at 70.5 h was 6.96%.

`Cc1cc(S(=O)(=O)N2CCC(S(C)(=O)=O)CC2)ccc1F`: the cytotoxicity at 70.5 h was -0.414%.

For `COc1ccc(S(=O)(=O)N2CCC(S(C)(=O)=O)CC2)cc1C`, the cytotoxicity at 70.5 h amounted to 5.77%.

As for `O=C(CC1CCCC1)NCCn1ccc(-c2ccccn2)n1`, the cytotoxicity at 70.5 h was 4.96%.

Turning to `Cn1nc(CNC(=O)C2CCCC2)cc1C1CC1`, the cytotoxicity at 70.5 h stood at 38.9%.

Take `O=S(=O)(Nc1cnn(C2CCOCC2)c1)c1ccc(F)c(F)c1`: the cytotoxicity at 70.5 h was determined as 1.31%.

Take `O=S(=O)(Nc1cnn(C2CCOCC2)c1)c1ccc2c(c1)CCO2`: the cytotoxicity at 70.5 h was -5.29%.

For `O=C(NCCC1=CCCCC1)C1CCCN(c2ccc3nncn3n2)C1` (configuration not stated), the cytotoxicity at 70.5 h was found to be 9.17%.

Regarding `O=C(CSC1CCc2ccccc2NC1=O)NCCc1ccco1` (configuration not stated), the cytotoxicity at 70.5 h was 7.74%.

Consider `CCOC(=O)N1CCN(C(=O)c2sc(-c3ccccc3F)nc2C)CC1`, for which the cytotoxicity at 70.5 h was -11.8%.

With `COc1ccccc1NC(=O)CSC1CCc2ccccc2NC1=O` (configuration not stated), the cytotoxicity at 70.5 h is -10.1%.

`O=C(Cn1ccc2c(Cl)cccc21)N1CCC2(CC1)OCCO2`: the cytotoxicity at 70.5 h was -4.3%.

`CC(NC(=O)N1CCN(c2ccc(Cl)cc2)CC1)C(=O)N1CCSCC1` (configuration not stated): the cytotoxicity at 70.5 h is -12.6%.

In the case of `O=C(Cn1cc(-c2ccccc2)ncc1=O)Nc1ccncc1`, the cytotoxicity at 70.5 h is -13.4%.

For `CC(C)C(NC(=O)N1CCN(c2ccc(Cl)cc2)CC1)C(=O)NC1CC1` (configuration not stated), the cytotoxicity at 70.5 h is -6.65%.

As to `O=C1CC(c2ccsc2)c2sc(C(=O)O)c(-c3ccccc3)c2N1` (configuration not stated), the cytotoxicity at 70.5 h was -11.4%.

Regarding `Cc1[nH]/c(=N\C(=O)c2csc(NC3CC3)n2)sc1C`, the cytotoxicity at 70.5 h was -5.91%.

As for `CCOc1ccc(Cl)cc1CNCCCn1ccnc1`, the cytotoxicity at 70.5 h worked out at 23.2%.

For `CCOc1cccc(CNc2ccccc2C(=O)OC)c1O`, the cytotoxicity at 70.5 h was 3.64%.

Consider `O=S(=O)(NC1=NCN(CCc2cccs2)CN1)c1ccc(F)cc1`, for which the cytotoxicity at 70.5 h was -20.8%.

With `CCCNC(=O)c1cc2c([nH]c1=O)CC(c1cccs1)CC2=O` (configuration not stated), the cytotoxicity at 70.5 h is -19.4%.

On to `Cc1cccc(N2Cc3nc(=O)[nH]n3C2=O)c1`, for which the cytotoxicity at 70.5 h was -14.3%.

Regarding `Cc1c(C)n(-c2ccccn2)c2nc3c(c(N)c12)CCCC3`, the cytotoxicity at 70.5 h was -9.17%.

With `O=C1N(c2ccccc2)Cc2nc(=O)[nH]n21`, the cytotoxicity at 70.5 h is -27.8%.

For the molecule `CNc1oc(-c2ccc(OC)c(S(=O)(=O)N3CCCCC3)c2)nc1C#N`, the cytotoxicity at 70.5 h is -18%.

For `CSCCC(CO)NC(=O)c1sc(-c2ccccc2Cl)nc1C` (configuration not stated), the cytotoxicity at 70.5 h is -23.9%.

On to `CC(C)c1nnc2ccc(N3CCC(C(N)=O)CC3)nn12`, for which the cytotoxicity at 70.5 h came out at 3.97%.

For the molecule `O=C(Cc1csc(-c2ccc(Cl)cc2)n1)NC(C(=O)O)c1ccccc1` (configuration not stated), the cytotoxicity at 70.5 h was -9.96%.

As to `COc1ccc(N2CCC(C(=O)/N=c3/[nH]ccs3)CC2)nn1`, the cytotoxicity at 70.5 h was -7.23%.

As for `CNc1oc(-c2cc(S(=O)(=O)N3CCCCCC3)c(C)o2)nc1C#N`, the cytotoxicity at 70.5 h is -20.9%.

Turning to `COC(=O)CNC(=O)CSCc1nc(O)c2cc(C(C)C)sc2n1`, the cytotoxicity at 70.5 h was -14.3%.

For the molecule `CCOC(=O)N1CCN(c2nc(NC)c3ccccc3n2)CC1`, the cytotoxicity at 70.5 h was -15.5%.

As to `Cc1ccc(-c2csc(N)c2C#N)cc1`, the cytotoxicity at 70.5 h was -16.3%.

In the case of `Cc1ccc(CNS(=O)(=O)CC2=NC(=O)n3cccc3C2=O)cc1`, the cytotoxicity at 70.5 h was -10.8%.

On to `CCOc1ccc(-n2nnc(C(=O)O)c2-c2ccncc2)cc1`, for which the cytotoxicity at 70.5 h worked out at 12.9%.

Take `Cc1cc2nc(SCC(=O)N3CCCC3)n(-c3ccccc3)c(=O)c2[nH]1`: the cytotoxicity at 70.5 h was -21.9%.

Regarding `Cc1ccc(F)c(-n2nnc(C(=O)O)c2-c2ccncc2)c1`, the cytotoxicity at 70.5 h was -5.82%.

As to `CCOc1ccc(-n2nnc(C(=O)O)c2-c2ccccn2)cc1`, the cytotoxicity at 70.5 h was -11.9%.

Turning to `CCN(c1ccc(C(=O)NCCCN2CCCC2)cc1)S(=O)(=O)CC`, the cytotoxicity at 70.5 h is -8.8%.

Regarding `CC(C)n1c(=O)nc2n1C(=O)N(c1ccc(F)cc1)C2`, the cytotoxicity at 70.5 h is -10.1%.

On to `O=C(COc1coc(CN2CCCCC2)cc1=O)NCc1ccccc1`, for which the cytotoxicity at 70.5 h was -15.4%.

As for `COc1cccc2ccn(CCC(=O)N3CCCC(C(=O)O)C3)c12` (configuration not stated), the cytotoxicity at 70.5 h is -22.2%.

Regarding `CNc1nc2c(s1)C(c1c(F)cccc1Cl)CC(=O)N2` (configuration not stated), the cytotoxicity at 70.5 h was -6.14%.

For the molecule `Nc1cc(-c2c[nH]nc2C2CCCN2CCCc2ccccc2)ccn1` (configuration not stated), the cytotoxicity at 70.5 h is -1.57%.

As for `CCn1nccc1CN(C)C(=O)Cn1nc(C)c(C)c1C`, the cytotoxicity at 70.5 h was -4.43%.

For the molecule `CC(C)Nc1nc(O)cc(C(C)n2ncc3ccccc3c2=O)n1` (configuration not stated), the cytotoxicity at 70.5 h was -5.33%.

Take `CCN(CC)c1nc(O)cc(C(C)n2ncc3ccccc3c2=O)n1` (configuration not stated): the cytotoxicity at 70.5 h was -4.03%.

Regarding `Cc1cc(C(F)(F)F)nc(C2COCCN2S(C)(=O)=O)n1` (configuration not stated), the cytotoxicity at 70.5 h is -6.03%.

`CC(C)N1CC(C(=O)NCc2ccc(S(=O)(=O)N(C)C)cc2)CC1=O` (configuration not stated): the cytotoxicity at 70.5 h is -7.28%.

For the molecule `CNc1cccc(CC2COCCN(C(=O)c3cncs3)C2)n1` (configuration not stated), the cytotoxicity at 70.5 h turned out to be 1.43%.

In the case of `Cc1ccc(C2CCCN(S(=O)(=O)N3CCOCC3)C2)nc1` (configuration not stated), the cytotoxicity at 70.5 h was -4.54%.

For the molecule `Cc1nc(NCC2CCOCC2)cc(C2CCN2S(C)(=O)=O)n1` (configuration not stated), the cytotoxicity at 70.5 h is -1.73%.

In the case of `CN(CC1(C)COC1)C(=O)c1cc(-c2ccnn2C)nc2ccccc12`, the cytotoxicity at 70.5 h is -0.845%.

In the case of `Cn1cc(CN2CCC(c3cc(CCO)[nH]n3)C2)cn1` (configuration not stated), the cytotoxicity at 70.5 h is -8.16%.

Regarding `Cc1cc(C)nc(C2CCN(C(=O)CO)CC2)n1`, the cytotoxicity at 70.5 h is -6.07%.

Regarding `CO[C@@H]1CC[C@@H](N(C)C(=O)c2cn3cc(C)ccc3n2)[C@H]1O`, the cytotoxicity at 70.5 h is -9%.

For `O=C(O)c1cccc(CN2CCCC(c3ccn[nH]3)C2)c1` (configuration not stated), the cytotoxicity at 70.5 h is -4.41%.

In the case of `CC1(C(=O)N2CCN(c3ncccn3)CC2)CNCCO1` (configuration not stated), the cytotoxicity at 70.5 h is -8.07%.

For `O=C(O)c1ccccc1CN1CCCC(Cc2ccn[nH]2)C1` (configuration not stated), the cytotoxicity at 70.5 h was -8.52%.

As for `CSc1nsc(NC(=O)c2cc(C3CC3)nn2C)n1`, the cytotoxicity at 70.5 h is -6.09%.

Take `CCCc1cc(C(=O)Nc2nc(SC)ns2)n(C)n1`: the cytotoxicity at 70.5 h is -13.2%.

Regarding `O=C(O)c1cccc(CN2CCCC(Cc3ccn[nH]3)C2)c1` (configuration not stated), the cytotoxicity at 70.5 h was -10.2%.

For the molecule `CN1CCC(c2nnc3n2CCN(S(=O)(=O)c2ccccc2Cl)C3)CC1`, the cytotoxicity at 70.5 h is -5.89%.

`CC(C)Nc1nc(O)cc(C2CC(=O)N(C3CCCCC3)C2)n1` (configuration not stated): the cytotoxicity at 70.5 h was -3.62%.

In the case of `COCCC(=O)NCCc1nc(N(C)C)ncc1-c1ccncc1`, the cytotoxicity at 70.5 h is -3.62%.

Regarding `Cc1noc(C)c1C(=O)N1CCC2(CCc3ccccc3C(=O)N2)C1` (configuration not stated), the cytotoxicity at 70.5 h is -4.04%.

Turning to `O=C(C1CCCCC1)N1CCCC([C@@H]2C[C@H](C(F)F)n3ncnc3N2)C1` (some centres not stated), the cytotoxicity at 70.5 h is -5.82%.

Turning to `Cc1cnc(-c2nc(C3CCN(Cc4ccccc4O)CC3)no2)cn1`, the cytotoxicity at 70.5 h is -4.91%.

Turning to `Cc1cnc(-c2nc(C3CCN(Cc4ccccc4Cl)CC3)no2)cn1`, the cytotoxicity at 70.5 h is -3.18%.

For `CS(=O)(=O)c1cc(Cl)cnc1C1CCN(C(=O)C2CCOCC2)CC1`, the cytotoxicity at 70.5 h was found to be 9.7%.

For the molecule `Cc1nc[nH]c1CN(Cc1ccc(F)cc1)C1CC(C)(C)NC(C)(C)C1`, the cytotoxicity at 70.5 h is -2.59%.

On to `Cn1cc(C2=NOC(C(=O)NC3(c4ccccc4F)CCCC3)C2)cn1` (configuration not stated), for which the cytotoxicity at 70.5 h is 12.6%.

As to `CS(=O)(=O)c1cc(Cl)cnc1C1CCN(C(=O)C2CC2)CC1`, the cytotoxicity at 70.5 h is -0.478%.

For `Cc1ccc(S(=O)(=O)N2CC[C@@H]3C[C@H](NC(=O)c4ccncc4)[C@@H]32)cc1`, the cytotoxicity at 70.5 h is -2.83%.

As to `Cc1ccc(S(=O)(=O)N2CC[C@@H]3C[C@H](NC(=O)c4[nH]ncc4Br)[C@@H]32)cc1`, the cytotoxicity at 70.5 h was -5.6%.

As to `Cc1nn(C)cc1S(=O)(=O)NCC(c1ccccc1Cl)N1CCCC1` (configuration not stated), the cytotoxicity at 70.5 h was -6.74%.

As to `COc1ccc(CC(=O)N2CCN(Cc3ccco3)C[C@H]2C)cc1OC`, the cytotoxicity at 70.5 h is -5.07%.

Take `CCCn1cc(Cl)c(C(=O)N2C[C@H]3C[C@H](OC)C[C@H]3C2)n1`: the cytotoxicity at 70.5 h stood at 3.23%.

In the case of `CCn1ncc(S(=O)(=O)N[C@@H]2CCC[C@@H](n3ccnc3)[C@@H]2O)c1C`, the cytotoxicity at 70.5 h is -2.3%.

Regarding `CC(=O)NCC(=O)NCC1(O)CCN(c2cnccn2)C1` (configuration not stated), the cytotoxicity at 70.5 h was 15.9%.

Consider `Cc1nc(-c2c(C)noc2C)cc(C2CCN(CC(=O)N(C)C)CC2)n1`, for which the cytotoxicity at 70.5 h turned out to be 5.85%.

Take `Cc1noc(C)c1-c1cccc(C2CCN(CC(=O)N(C)C)CC2)n1`: the cytotoxicity at 70.5 h was -2.68%.

With `O=C(c1cncs1)N1CCOCC(Cc2ccccn2)C1` (configuration not stated), the cytotoxicity at 70.5 h is -2.59%.

On to `Cc1ccc2nc(C(=O)N(C)[C@@H]3CC[C@@H](N4CCCC4)[C@@H]3O)cn2c1`, for which the cytotoxicity at 70.5 h was -3.38%.

`CC(C)c1ccc(CC2(C)Cc3cc(CC(=O)O)ccc3O2)cc1` (configuration not stated): the cytotoxicity at 70.5 h amounted to 17.5%.

Take `CC(CNCc1ccncc1)Oc1ccccn1` (configuration not stated): the cytotoxicity at 70.5 h is -12.5%.

Turning to `CCOC(=O)N1CCN(c2nc(NCCCO)c3ccccc3n2)CC1`, the cytotoxicity at 70.5 h was -21.9%.

For the molecule `CC(O)CNCc1ccc(OCc2ccc3c(c2)OCCO3)cc1` (configuration not stated), the cytotoxicity at 70.5 h turned out to be 19.4%.

On to `CCn1c(CN2CCCC(O)(c3ccc(F)cc3)CC2)cnc1SC` (configuration not stated), for which the cytotoxicity at 70.5 h was -5.35%.

Turning to `CCn1c(CN2CCC(O)(c3ccc4c(c3)OCO4)CC2)cnc1SC`, the cytotoxicity at 70.5 h was found to be 1.92%.

Turning to `COc1ccc(C2C3=C(COC3=O)Nc3[nH]nc(C)c32)cc1OC` (configuration not stated), the cytotoxicity at 70.5 h is -22.8%.

Values taken from ChEMBL document CHEMBL3507680, “University of Dundee, Gates Library screen for HepG2 cell viability”.
